The numbers were not newly measured in patent US5516503A, “Diagnostic composition comprising a binuclear complex, its method of preparation and its use in magnetic resonance imaging” (Guerbet S.A., priority 1989, dated 1996), which cites them from elsewhere.

For series [1] the following is noted: information of Berlex Lab.
Another series deals with male mice. To be noted: document FR-A-2 596 992.

Regarding `CNC[C@H](O)[C@@H](O)[C@H](O)[C@H](O)CO.CNC[C@H](O)[C@@H](O)[C@H](O)[C@H](O)CO.O=C([O-])CN(CCN(CC(=O)[O-])CC(=O)O)CCN(CC(=O)[O-])CC(=O)O.[Gd+3]` [Magnevist, salt of di-N-methylglucamine (dimeglumine) of the complex Gd(III)-diethylenetriaminepentaacetic acid (DTPA)], the osmotic pressure in series [1] is recorded as 1940 mosm/kg. Also, the LD50 (as a rule, the dose at which mortality reaches 50%) in the series on male mice is given as 4.45 mmol/kg.
